Measured values: US20250161234A1, “METHODS OF USE OF BENZALDEHYDE COMPOSITIONS” (priority 2022, published 2025)

Key:
Format in all cases: cell-based
E. coli [1] = assay: Successive dilution in TSB, growth inhibition; set-up: key: The presence of a “+” in the box indicates that the particular bacteria was found; the presence of a “−” indicates that the particular bacteria was not found; settings: benzaldehyde concentration given as 2, in TSB; Table 1
[2] = tested on: five different strains of bacteria; assay: Successive dilution in TSB, statements on all five strains
Description: (§1) The following is a summary of an experiment using the benzaldehyde composition as disclosed herein to destroy bacteria, for example to test it as a preservative of food. The benzaldehyde was tested for its ability to inhibit the growth of microbes at ten different concentrations of the benzaldehyde, each concentration was half of the previous concentrations as a result of a dilution using TSB as the medium. The following concentrations were tested by successive dilutions of 100% benzaldehyde: 50%, 25%, 12.5%, 6.25%, 3.125%, 1.5625%, 0.78125%, 0.390625%, 0.195313%, 0.097656%. Each concentration appears in the chart below for each of five different strains of bacteria. The experiment was conducted twice and therefore generated two charts (see below). […] Thus, the minimum concentration needed to substantially eliminate the bacterial strain can be deduced from the experiment.
(§2) The initial concentration of the microbes was approximately […]. The microbes studied are listed below. Enterococcus feaclis • 2. Staphylococcus aureus • 3. Pseudomonas aeruginosa • 4. E. coli • 5. Klebsiella pneomoniae
A further experiment was conducted in which instead of starting from a 100% concentration, we started from a 10% concentration of benzaldehyde and performed successive dilutions. […] This experimental was not repeated after receiving the results.

Enterococcus feaclis = assay: Successive dilution in TSB, growth inhibition; set-up: key: The presence of a “+” in the box indicates that the particular bacteria was found; the presence of a “−” indicates that the particular bacteria was not found
Description: as §1, §2

Pseudomonas aeruginosa = assay: Successive dilution in TSB, growth inhibition; set-up: key: The presence of a “+” in the box indicates that the particular bacteria was found; the presence of a “−” indicates that the particular bacteria was not found
Description: as §1, §2

Staphylococcus aureus = assay: Successive dilution in TSB, growth inhibition; set-up: key: The presence of a “+” in the box indicates that the particular bacteria was found; the presence of a “−” indicates that the particular bacteria was not found
Description: as §1, §2

E. coli [3] = assay: Successive dilution in TSB, growth inhibition; set-up: key: The presence of a “+” in the box indicates that the particular bacteria was found; the presence of a “−” indicates that the particular bacteria was not found
Description: as §1, §2

Klebsiella pneomoniae = assay: Successive dilution in TSB, growth inhibition; set-up: key: The presence of a “+” in the box indicates that the particular bacteria was found; the presence of a “−” indicates that the particular bacteria was not found
Description: as §1, §2

[4] = conclusion from the dilution experiments
[5] = benzaldehyde 0.097656% in TSB, Table 1
[6] = benzaldehyde 0.097656% in TSB, Table 2
[7] = benzaldehyde 0.195313% in TSB, Table 1
[8] = benzaldehyde 0.195313% in TSB, Table 2
[9] = benzaldehyde 0.390625% in TSB, Table 1
[10] = benzaldehyde 0.390625% in TSB, Table 2
[11] = benzaldehyde 0.78125% in TSB, Table 1
[12] = benzaldehyde 0.78125% in TSB, Table 2
[13] = benzaldehyde 1.5625% in TSB, Table 1
[14] = benzaldehyde 1.5625% in TSB, Table 2
[15] = benzaldehyde 3.125% in TSB, Table 1
[16] = benzaldehyde 3.125% in TSB, Table 2
[17] = benzaldehyde 6.25% in TSB, Table 1
[18] = benzaldehyde 6.25% in TSB, Table 2
[19] = benzaldehyde 12.5% in TSB, Table 1
[20] = benzaldehyde 12.5% in TSB, Table 2
[21] = benzaldehyde 25% in TSB, Table 2
[22] = benzaldehyde 50% in TSB, Table 1
[23] = benzaldehyde 50% in TSB, Table 2
[24] = benzaldehyde concentration given as 2, in TSB, Table 1

With O=Cc1ccccc1 [Benzaldehyde] the “bacteria found (+) / not found (−)” value (E. coli [1]) was “−”, the “benzaldehyde concentration giving a broad spectrum effect” value [2, 4] was ≥ 12.5% and the “benzaldehyde concentration giving an antibacterial effect against at least some bacteria” value [2, 4] was ≥ 1.5625%. For the same molecule, the detection of bacteria ([2]; further experiment started from 10% benzaldehyde, first dilution to 5%, all strains) was “positive detection of bacteria for all strains”, the “bacteria found (+) / not found (−)” value (Enterococcus feaclis; [5]) was “+” and the “bacteria found (+) / not found (−)” value (Enterococcus feaclis; [6]) was “+”. The “bacteria found (+) / not found (−)” value (Enterococcus feaclis; [7]) was “+”, the “bacteria found (+) / not found (−)” value (Enterococcus feaclis; [8]) was “+” and the “bacteria found (+) / not found (−)” value (Enterococcus feaclis; [9]) was “+”. For the same molecule, the “bacteria found (+) / not found (−)” value (Enterococcus feaclis; [10]) was “+”, the “bacteria found (+) / not found (−)” value (Enterococcus feaclis; [11]) was “+” and the “bacteria found (+) / not found (−)” value (Enterococcus feaclis; [12]) was “+”. The “bacteria found (+) / not found (−)” value (Enterococcus feaclis; [13]) was “+”, the “bacteria found (+) / not found (−)” value (Enterococcus feaclis; [14]) was “+” and the “bacteria found (+) / not found (−)” value (Enterococcus feaclis; [15]) was “+”. For the same molecule, the “bacteria found (+) / not found (−)” value (Enterococcus feaclis; [16]) was “+”, the “bacteria found (+) / not found (−)” value (Enterococcus feaclis; [17]) was “+” and the “bacteria found (+) / not found (−)” value (Enterococcus feaclis; [18]) was “+”. The “bacteria found (+) / not found (−)” value (Enterococcus feaclis; [19]) was “−”, the “bacteria found (+) / not found (−)” value (Enterococcus feaclis; [20]) was “−” and the “bacteria found (+) / not found (−)” value (Enterococcus feaclis; [21]) was “−”. For the same molecule, the “bacteria found (+) / not found (−)” value (Enterococcus feaclis; [22]) was “−”, the “bacteria found (+) / not found (−)” value (Enterococcus feaclis; [23]) was “−” and the “bacteria found (+) / not found (−)” value (Enterococcus feaclis; [24]) was “−”. For the same molecule, the “bacteria found (+) / not found (−)” value (Pseudomonas aeruginosa; [5]) was “+”, the “bacteria found (+) / not found (−)” value (Pseudomonas aeruginosa; [6]) was “+” and the “bacteria found (+) / not found (−)” value (Pseudomonas aeruginosa; [7]) was “+”. The “bacteria found (+) / not found (−)” value (Pseudomonas aeruginosa; [8]) was “+”, the “bacteria found (+) / not found (−)” value (Pseudomonas aeruginosa; [9]) was “+” and the “bacteria found (+) / not found (−)” value (Pseudomonas aeruginosa; [10]) was “+”. The “bacteria found (+) / not found (−)” value (Pseudomonas aeruginosa; [11]) was “+”, the “bacteria found (+) / not found (−)” value (Pseudomonas aeruginosa; [12]) was “+” and the “bacteria found (+) / not found (−)” value (Pseudomonas aeruginosa; [13]) was “−”. For the same molecule, the “bacteria found (+) / not found (−)” value (Pseudomonas aeruginosa; [14]) was “−”, the “bacteria found (+) / not found (−)” value (Pseudomonas aeruginosa; [15]) was “−” and the “bacteria found (+) / not found (−)” value (Pseudomonas aeruginosa; [16]) was “−”. The “bacteria found (+) / not found (−)” value (Pseudomonas aeruginosa; [17]) was “−”, the “bacteria found (+) / not found (−)” value (Pseudomonas aeruginosa; [18]) was “−” and the “bacteria found (+) / not found (−)” value (Pseudomonas aeruginosa; [19]) was “−”. The “bacteria found (+) / not found (−)” value (Pseudomonas aeruginosa; [20]) was “−”, the “bacteria found (+) / not found (−)” value (Pseudomonas aeruginosa; [21]) was “−” and the “bacteria found (+) / not found (−)” value (Pseudomonas aeruginosa; [22]) was “−”. For the same molecule, the “bacteria found (+) / not found (−)” value (Pseudomonas aeruginosa; [23]) was “−”, the “bacteria found (+) / not found (−)” value (Pseudomonas aeruginosa; in TSB, Table 1) was “−” and the “bacteria found (+) / not found (−)” value (Staphylococcus aureus; [5]) was “+”. The “bacteria found (+) / not found (−)” value (Staphylococcus aureus; [6]) was “+”, the “bacteria found (+) / not found (−)” value (Staphylococcus aureus; [7]) was “+” and the “bacteria found (+) / not found (−)” value (Staphylococcus aureus; [8]) was “+”. For the same molecule, the “bacteria found (+) / not found (−)” value (Staphylococcus aureus; [9]) was “+”, the “bacteria found (+) / not found (−)” value (Staphylococcus aureus; [10]) was “+” and the “bacteria found (+) / not found (−)” value (Staphylococcus aureus; [11]) was “+”. The “bacteria found (+) / not found (−)” value (Staphylococcus aureus; [12]) was “+”, the “bacteria found (+) / not found (−)” value (Staphylococcus aureus; [13]) was “+” and the “bacteria found (+) / not found (−)” value (Staphylococcus aureus; [14]) was “−”. For the same molecule, the “bacteria found (+) / not found (−)” value (Staphylococcus aureus; [15]) was “−”, the “bacteria found (+) / not found (−)” value (Staphylococcus aureus; [16]) was “−” and the “bacteria found (+) / not found (−)” value (Staphylococcus aureus; [17]) was “−”. The “bacteria found (+) / not found (−)” value (Staphylococcus aureus; [18]) was “−”, the “bacteria found (+) / not found (−)” value (Staphylococcus aureus; [19]) was “−” and the “bacteria found (+) / not found (−)” value (Staphylococcus aureus; [20]) was “−”. For the same molecule, the “bacteria found (+) / not found (−)” value (Staphylococcus aureus; [21]) was “−”, the “bacteria found (+) / not found (−)” value (Staphylococcus aureus; [22]) was “−” and the “bacteria found (+) / not found (−)” value (Staphylococcus aureus; [23]) was “−”. For the same molecule, the “bacteria found (+) / not found (−)” value (Staphylococcus aureus; [24]) was “−”, the “bacteria found (+) / not found (−)” value (E. coli [3]; [5]) was “+” and the “bacteria found (+) / not found (−)” value (E. coli [3]; [6]) was “+”. For the same molecule, the “bacteria found (+) / not found (−)” value (E. coli [3]; [7]) was “+”, the “bacteria found (+) / not found (−)” value (E. coli [3]; [8]) was “+” and the “bacteria found (+) / not found (−)” value (E. coli [3]; [9]) was “+”. The “bacteria found (+) / not found (−)” value (E. coli [3]; [10]) was “+”, the “bacteria found (+) / not found (−)” value (E. coli [3]; [11]) was “+” and the “bacteria found (+) / not found (−)” value (E. coli [3]; [12]) was “+”. For the same molecule, the “bacteria found (+) / not found (−)” value (E. coli [3]; [13]) was “−”, the “bacteria found (+) / not found (−)” value (E. coli [3]; [14]) was “−” and the “bacteria found (+) / not found (−)” value (E. coli [3]; [15]) was “−”. For the same molecule, the “bacteria found (+) / not found (−)” value (E. coli [3]; [16]) was “−”, the “bacteria found (+) / not found (−)” value (E. coli [3]; [17]) was “−” and the “bacteria found (+) / not found (−)” value (E. coli [3]; [18]) was “−”. For the same molecule, the “bacteria found (+) / not found (−)” value (E. coli [3]; [19]) was “−”, the “bacteria found (+) / not found (−)” value (E. coli [3]; [20]) was “−” and the “bacteria found (+) / not found (−)” value (E. coli [3]; [21]) was “−”. For the same molecule, the “bacteria found (+) / not found (−)” value (E. coli [3]; [22]) was “−”, the “bacteria found (+) / not found (−)” value (E. coli [3]; [23]) was “−” and the “bacteria found (+) / not found (−)” value (Klebsiella pneomoniae; [5]) was “+”. The “bacteria found (+) / not found (−)” value (Klebsiella pneomoniae; [6]) was “+”, the “bacteria found (+) / not found (−)” value (Klebsiella pneomoniae; [7]) was “+” and the “bacteria found (+) / not found (−)” value (Klebsiella pneomoniae; [8]) was “+”. The “bacteria found (+) / not found (−)” value (Klebsiella pneomoniae; [9]) was “+”, the “bacteria found (+) / not found (−)” value (Klebsiella pneomoniae; [10]) was “−” and the “bacteria found (+) / not found (−)” value (Klebsiella pneomoniae; [11]) was “+”. For the same molecule, the “bacteria found (+) / not found (−)” value (Klebsiella pneomoniae; [12]) was “−”, the “bacteria found (+) / not found (−)” value (Klebsiella pneomoniae; [13]) was “−” and the “bacteria found (+) / not found (−)” value (Klebsiella pneomoniae; [14]) was “−”. The “bacteria found (+) / not found (−)” value (Klebsiella pneomoniae; [15]) was “−”, the “bacteria found (+) / not found (−)” value (Klebsiella pneomoniae; [16]) was “−” and the “bacteria found (+) / not found (−)” value (Klebsiella pneomoniae; [17]) was “−”. The “bacteria found (+) / not found (−)” value (Klebsiella pneomoniae; [18]) was “−”, the “bacteria found (+) / not found (−)” value (Klebsiella pneomoniae; [19]) was “−” and the “bacteria found (+) / not found (−)” value (Klebsiella pneomoniae; [20]) was “−”. The “bacteria found (+) / not found (−)” value (Klebsiella pneomoniae; [21]) was “−”, the “bacteria found (+) / not found (−)” value (Klebsiella pneomoniae; [22]) was “−” and the “bacteria found (+) / not found (−)” value (Klebsiella pneomoniae; [23]) was “−”. For the same molecule, the “bacteria found (+) / not found (−)” value (Klebsiella pneomoniae; [24]) was “−”.
